# From patent publication US20160158200A1, “Combinations of Hepatitis C Virus Inhibitors” (priority 2013, published 2016)
# System: HCV genotype-1a variant with glutamine 30 changed to glutamate in the NS5A protein
# Assay type: cell-based
# Settings: not given
# In short: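 Synergy was assessed by combining several fixed amounts of an NS5A-targeting compound with a titration of the second compound of interest.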
row,Compound,Fold-Synergistic 1a (Q30E) [fold]
1,COc1cc2ccccc2c(C(=O)N2CCC[C@H]2c2ncc(-c3ccc(-c4ccc(-c5cnc([C@@H](NC(=O)C(C)(C)C)C(C)C)[nH]5)cc4)cc3)[nH]2)n1 [Compound Y-13],>100

# Same assay, conditions: test compound titrated with BMS-790052 fixed at 200 nM; genotype 1a Q30E replicon
row,Compound,Fold-Synergistic 1a (Q30E) [fold]
1,COC(=O)N[C@H](C(=O)N1CCC[C@H]1c1ncc(-c2ccc(-c3ccc(-c4cnc([C@@H](NC(=O)[C@@H]5CCCN5C(=O)OC(C)(C)C)C(C)(C)C)[nH]4)cc3)cc2)[nH]1)C(C)C [Compound B-191],>10
2,COC(=O)N(C)C(C)(C)C(=O)N[C@H](c1nc(-c2ccc(-c3ccc(-c4c[nH]c([C@@H](NC(=O)C(C)(C)N(C)C(=O)OC)C(C)(C)C)n4)cc3)cc2)c[nH]1)C(C)(C)C [Compound L-18],>100
3,CC(C)CC(=O)NC1(c2ncc(-c3ccc(-c4ccc(-c5cnc(C6(NC(=O)CC(C)C)CC=CC6)[nH]5)cc4)cc3)[nH]2)CC=CC1.O=C(O)C(F)(F)F.O=C(O)C(F)(F)F [Compound N-16],<10
4,"CC(C)[C@H](NC(=O)C12CCC(C1)C(C)(C)C2O)c1nc(-c2ccc(-c3ccc(-c4c[nH]c([C@@H](NC(=O)C56CCC(C5)C(C)(C)C6O)C(C)C)n4)cc3)cc2)c[nH]1 (single isomer, unassigned) [Compound Y-115]",>100
5,CC(C)(C)[C@H](NC(=O)[C@](C)(O)c1ccccc1)c1nc(-c2ccc(-c3ccc(-c4c[nH]c([C@@H](NC(=O)[C@](C)(O)c5ccccc5)C(C)(C)C)n4)cc3)cc2)c[nH]1 [Compound L-94],>100
6,"CC(C)(C)[C@H](NC(=O)C1(CO)CCCO1)c1nc(-c2ccc(-c3ccc(-c4c[nH]c([C@@H](NC(=O)C5(CO)CCCO5)C(C)(C)C)n4)cc3)cc2)c[nH]1 (single isomer, unassigned) [Compound Y-112]",>100
7,COc1cccc(C(=O)C(=O)N[C@H](c2ncc(-c3ccc(-c4ccc(-c5cnc([C@@H](NC(=O)C(=O)c6cccc(OC)c6F)C(C)C)[nH]5)cc4)cc3)[nH]2)C(C)C)c1F [Compound P-119],>100
8,"CC(C)(C(=O)N[C@H](c1nc(-c2ccc(-c3ccc(-c4c[nH]c([C@@H](NC(=O)C(C)(C)C(O)C5CC(F)(F)C5)C(C)(C)C)n4)cc3)cc2)c[nH]1)C(C)(C)C)C(O)C1CC(F)(F)C1 (single isomer, unassigned) [Compound N-144C]",>100
9,CC(C)[C@H](NC(=O)c1ccc(Cl)c(Cl)c1)c1ncc(-c2ccc(-c3ccc(-c4cnc([C@@H](NC(=O)c5ccc(Cl)c(Cl)c5)C(C)C)[nH]4)cc3)cc2)[nH]1 [Compound S-75],>100
10,CC(C)(C)[C@H](NC(=O)C1(C(=O)O)CCCCC1)c1nc(-c2ccc(-c3ccc(-c4c[nH]c([C@@H](NC(=O)C5(C(=O)O)CCCCC5)C(C)(C)C)n4)cc3)cc2)c[nH]1 [Compound N-147],>100
11,COC(=O)N[C@@H](C(=O)N[C@H](c1nc(-c2ccc(-c3ccc(-c4c[nH]c([C@@H](NC(=O)[C@H](NC(=O)OC)C(C)C)C(C)(C)C)n4)cc3)cc2)c[nH]1)C(C)(C)C)C(C)C [Compound N-28],>100
12,C[C@@H]1CN(C(=O)C(=O)N[C@H](c2nc(-c3ccc(-c4ccc(-c5c[nH]c([C@@H](NC(=O)C(=O)N6C[C@@H](C)O[C@@H](C)C6)C6(C)CC6)n5)cc4)cc3)c[nH]2)C2(C)CC2)C[C@H](C)O1 [Compound W-61],>100
13,CC1(C(=O)N[C@H](c2nc(-c3ccc(-c4ccc(-c5c[nH]c([C@@H](NC(=O)C6(C)CCC(F)(F)CC6)C(C)(C)C)n5)cc4)cc3)c[nH]2)C(C)(C)C)CCC(F)(F)CC1 [Compound P-20],>100
14,CC(C)(C)[C@H](NC(=O)c1ccc(C(F)(F)F)s1)c1nc(-c2ccc(-c3ccc(-c4c[nH]c([C@@H](NC(=O)c5ccc(C(F)(F)F)s5)C(C)(C)C)n4)cc3)cc2)c[nH]1 [Compound N-114],>100
15,CC(C)[C@H](NC(=O)c1ccccc1)c1ncc(-c2ccc(-c3ccc(-c4cnc([C@@H](NC(=O)c5ccccc5)C(C)C)[nH]4)cc3)cc2)[nH]1 [Compound S-5],>100
16,COCC(=O)N[C@H](c1ncc(-c2ccc(-c3ccc(-c4cnc([C@@H](NC(=O)COC)C(C)C)[nH]4)cc3)cc2)[nH]1)C(C)C [Compound S-13],>10
17,CC(C)(C)[C@H](NC(=O)C(N)=O)c1nc(-c2ccc(-c3ccc(-c4c[nH]c([C@@H](NC(=O)C(N)=O)C(C)(C)C)n4)cc3)cc2)c[nH]1 [Compound W-42],>10
18,CC(C)(C)[C@H](NC(=O)C1CCCCO1)c1nc(-c2ccc(-c3ccc(-c4c[nH]c([C@@H](NC(=O)C5CCCCO5)C(C)(C)C)n4)cc3)cc2)c[nH]1 (stereo partly shown) [Compound Y-6],>100
19,CC(C)[C@H](NC(=O)C(C)(C)C)c1ncc(-c2ccc(-c3ccc(-c4cnc([C@@H](NC(=O)C(C)(C)C)C(C)C)n4C)cc3)cc2)n1C [Compound B-205],<10
20,CC(C)(C)[C@H](NC(=O)C1CC(=O)C1)c1nc(-c2ccc(-c3ccc(-c4c[nH]c([C@@H](NC(=O)C5CC(=O)C5)C(C)(C)C)n4)cc3)cc2)c[nH]1 [Compound W-171],>100

row,Compound,Fold-Synergistic 1a (Q30E) [fold]
1,CCOC(=O)C(C)(C)C(=O)N[C@H](c1nc(-c2ccc(-c3ccc(-c4c[nH]c([C@@H](NC(=O)C(C)(C)C(=O)OCC)C(C)(C)C)n4)cc3)cc2)c[nH]1)C(C)(C)C.O=C(O)C(F)(F)F.O=C(O)C(F)(F)F [Compound W-126],>100
2,CC(C)(C)OC(=O)N1CCC(F)(F)C[C@H]1C(=O)N[C@H](c1nc(-c2ccc(-c3ccc(-c4c[nH]c([C@@H](NC(=O)[C@@H]5CC(F)(F)CCN5C(=O)OC(C)(C)C)C(C)(C)C)n4)cc3)cc2)c[nH]1)C(C)(C)C [Compound L-21],>100
3,CC(C)(C)[C@H](NC(=O)C1CC2CCC(C1)C2(F)F)c1nc(-c2ccc(-c3ccc(-c4c[nH]c([C@@H](NC(=O)C5CC6CCC(C5)C6(F)F)C(C)(C)C)n4)cc3)cc2)c[nH]1 (stereo partly shown) [Compound P-44],>100
4,CC(C)(C)C(NC(=O)C1CC(=O)c2ccccc2C1)c1nc(-c2ccc(-c3ccc(-c4c[nH]c(C(NC(=O)C5CC(=O)c6ccccc6C5)C(C)(C)C)n4)cc3)cc2)c[nH]1 (mixture of isomers) [Compound S-256],>100
5,CC(C)(C)C(=O)N[C@H](c1nc(-c2ccc(-c3ccc(-c4c[nH]c([C@@H](NC(=O)C(C)(C)C)C(C)(C)CO)n4)cc3)cc2)c[nH]1)C(C)(C)CO [Compound N-110],>100
6,CCCOC(=O)N[C@@H](C(=O)N[C@H](c1ncc(-c2ccc(-c3ccc(-c4cnc([C@@H](NC(=O)[C@H](NC(=O)OCCC)C(C)C)C(C)C)[nH]4)cc3)cc2)[nH]1)C(C)C)C(C)C [Compound S-248],>100
7,CC(C)(C)[C@H](NC(=O)C1CCC(F)(F)CC1)c1ncc(C#Cc2ccc3cc(C#Cc4cnc([C@@H](NC(=O)C5CCC(F)(F)CC5)C(C)(C)C)[nH]4)ccc3c2)[nH]1 [Compound B65],>100
8,CC(C)(C)[C@H](NC(=O)C1CCC(F)(F)CC1)c1ncc(C#Cc2ccc3cc(-c4cnc([C@@H](NC(=O)C5CCC(F)(F)CC5)C(C)(C)C)[nH]4)ccc3c2)[nH]1 [Compound B1],>100
9,CN(C)C(=N[C@H](c1ncc(-c2ccc(-c3ccc(-c4cnc([C@@H](NC(=O)C(C)(C)C5CCCC5)C(C)(C)C)[nH]4)cc3)cc2)[nH]1)C(C)(C)C)N(C)C [Compound B83],>100
10,CC(C)(C)[C@H](NC(=O)c1ncccc1F)c1nc(-c2ccc(-c3ccc(-c4c[nH]c([C@@H](NC(=O)c5ncccc5F)C(C)(C)C)n4)cc3)cc2)c[nH]1 [Compound P-22],>100
11,CC(C)[C@H](NC(=O)C(C)(C)N1C[C@@H](C)O[C@@H](C)C1)c1nc(-c2ccc(-c3ccc(-c4c[nH]c([C@@H](NC(=O)C(C)(C)N5C[C@@H](C)O[C@@H](C)C5)C(C)C)n4)cc3)cc2)c[nH]1 [Compound W-161],>100
12,CC(C)(C)[C@H](NC(=O)C12CCC(F)(CC1)CC2)c1nc(-c2ccc(-c3ccc(-c4c[nH]c([C@@H](NC(=O)C56CCC(F)(CC5)CC6)C(C)(C)C)n4)cc3)cc2)c[nH]1 [Compound P-40],>100
13,CC(C)(C(=O)N[C@H](c1nc(-c2ccc(-c3ccc(-c4c[nH]c([C@@H](NC(=O)C(C)(C)C(=O)N5CCOCC5)C(C)(C)C)n4)cc3)cc2)c[nH]1)C(C)(C)C)C(=O)N1CCOCC1 [Compound W-135],>10
14,CC(C)CC(=O)NC1(c2ncc(-c3ccc(-c4ccc(-c5cnc(C6(NC(=O)CC(C)C)CCCCC6)[nH]5)cc4)cc3)[nH]2)CCCCC1.O=C(O)C(F)(F)F.O=C(O)C(F)(F)F [Compound N-24],<10
15,CC(C)(C)[C@H](NC(=O)C1(C2(O)CCNCC2)CCC1)c1ncc(-c2ccc(-c3ccc(-c4cnc([C@@H](NC(=O)C5(C6(O)CCOCC6)CCC5)C(C)(C)C)[nH]4)cc3)cc2)[nH]1 [Compound B84],>100
16,COc1ccc(C(=O)C(=O)N[C@H](c2ncc(-c3ccc(-c4ccc(-c5cnc([C@@H](NC(=O)C(=O)c6ccc(OC)c(Cl)c6)C(C)C)[nH]5)cc4)cc3)[nH]2)C(C)C)cc1Cl [Compound P-113],>100
17,CC(C)(C)[C@H](NC(=O)C1(C2(O)CCC(F)(F)CC2)CC1)c1ncc(C#Cc2ccc3cc(-c4cnc([C@@H](NC(=O)C5(C6(O)CCC(F)(F)CC6)CC5)C(C)(C)C)[nH]4)ccc3c2)[nH]1 [Compound B5B],>100
18,"CC(C)(C(=O)N[C@H](c1nc(-c2ccc(-c3ccc(-c4c[nH]c([C@@H](NC(=O)C(C)(C)C(O)c5ccccc5F)C(C)(C)C)n4)cc3)cc2)c[nH]1)C(C)(C)C)C(O)c1ccccc1F (single isomer, unassigned) [Compound N-124C]",>100
19,CC(C)[C@H](NC(=O)c1cccc(C#N)c1)c1ncc(-c2ccc(-c3ccc(-c4cnc([C@@H](NC(=O)c5cccc(C#N)c5)C(C)C)[nH]4)cc3)cc2)[nH]1 [Compound S-72],>100
